Experimental findings from US9630958B2, “Triazine compounds” (Sphaera Pharma Pte. Ltd., priority 2012, dated 2017) are described below.

Experiment [1] concerns the target T1, Recombinant mTOR (FRAP1) (Homo sapiens, UniProt P42345).
T1 construct: purchased Invitrogen
The experiment can be described thus: mTOR in vitro kinase assay (TR-FRET, phosphorylation of GFP-4E-BP1). As to conditions: for IC50: 8 μM ATP, 400 nM GFP-4E-BP1; for inhibition at 1 µM: 1 uM compound, read-out: mTOR % Inhib@1 uM. The format is biochemical. The essentials: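 Recombinant human mTOR with GFP-4E-BP1 substrate at 400 nM and 8 μM ATP, 1 h at room temperature, then quenched with 10 mM EDTA plus 2 nM Tb-anti-p4E-BP1 (pThr46) for 1 h. TR-FRET 520/486 nm ratio fitted against inhibitor concentration by four-parameter sigmoidal regression.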

In experiment [2] the target is T2, PI3 Kinase alpha (p110 alpha/p85 alpha) (Homo sapiens, UniProt P42336).
T2 construct: purchased Invitrogen
The experiment can be described thus: PI3K TR-FRET assay (Transcreener ADP2). The format is biochemical. As to conditions: for IC50: PI3K alpha, 1 μM ATP, 50 μM PIP2; for inhibition at 1 µM: 1 uM compound, read-out: PI3K % Inhib@1 uM. The method, boiled down: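 p110α/p85α with diC8 PIP2 (50 μM) and 1 μM ATP in 50 mM HEPES pH 7.4, MgCl2, CHAPS, DTT, EGTA; 1 h at room temperature. ADP detected by Transcreener ADP2 TR-FRET (665/615 nm ratio), converted to product via ADP-ATP standard curve; IC50 from four-parameter fit of % inhibition.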
For orientation: In TR-FRET formats the signal depends on donor and acceptor labels being close together.

T1 sequence (P42345 1360-2549 limits assumed): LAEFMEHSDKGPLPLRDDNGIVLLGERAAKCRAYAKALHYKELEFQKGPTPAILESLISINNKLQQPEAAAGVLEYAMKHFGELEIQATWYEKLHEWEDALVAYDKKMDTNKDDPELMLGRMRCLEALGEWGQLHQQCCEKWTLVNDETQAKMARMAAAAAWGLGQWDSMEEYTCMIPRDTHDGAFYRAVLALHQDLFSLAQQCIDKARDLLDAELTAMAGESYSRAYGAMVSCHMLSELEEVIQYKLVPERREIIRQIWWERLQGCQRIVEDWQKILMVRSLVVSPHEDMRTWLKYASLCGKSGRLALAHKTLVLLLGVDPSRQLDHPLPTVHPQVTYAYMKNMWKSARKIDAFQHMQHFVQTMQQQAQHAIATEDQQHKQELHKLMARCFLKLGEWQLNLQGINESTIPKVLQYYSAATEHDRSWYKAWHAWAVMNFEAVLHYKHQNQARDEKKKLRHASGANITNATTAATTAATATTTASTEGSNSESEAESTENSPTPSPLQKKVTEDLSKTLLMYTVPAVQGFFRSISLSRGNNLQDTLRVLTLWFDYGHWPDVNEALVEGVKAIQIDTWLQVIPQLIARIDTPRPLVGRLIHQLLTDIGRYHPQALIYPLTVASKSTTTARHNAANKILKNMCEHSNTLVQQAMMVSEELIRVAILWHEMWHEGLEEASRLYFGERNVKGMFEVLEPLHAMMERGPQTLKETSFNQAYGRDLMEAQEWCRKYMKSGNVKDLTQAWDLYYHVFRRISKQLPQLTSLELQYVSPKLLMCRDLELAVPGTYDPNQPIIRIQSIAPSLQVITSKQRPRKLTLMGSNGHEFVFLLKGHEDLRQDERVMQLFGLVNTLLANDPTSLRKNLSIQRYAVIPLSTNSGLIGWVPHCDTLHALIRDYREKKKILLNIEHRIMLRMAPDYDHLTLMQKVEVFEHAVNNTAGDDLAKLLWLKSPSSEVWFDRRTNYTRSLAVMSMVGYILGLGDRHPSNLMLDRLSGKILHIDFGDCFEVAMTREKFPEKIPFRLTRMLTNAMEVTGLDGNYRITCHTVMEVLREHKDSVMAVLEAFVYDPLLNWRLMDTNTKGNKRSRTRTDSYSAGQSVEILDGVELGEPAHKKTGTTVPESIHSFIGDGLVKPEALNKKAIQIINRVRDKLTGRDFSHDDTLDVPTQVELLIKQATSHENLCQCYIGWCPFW
T2 sequence (P42336 whole entry): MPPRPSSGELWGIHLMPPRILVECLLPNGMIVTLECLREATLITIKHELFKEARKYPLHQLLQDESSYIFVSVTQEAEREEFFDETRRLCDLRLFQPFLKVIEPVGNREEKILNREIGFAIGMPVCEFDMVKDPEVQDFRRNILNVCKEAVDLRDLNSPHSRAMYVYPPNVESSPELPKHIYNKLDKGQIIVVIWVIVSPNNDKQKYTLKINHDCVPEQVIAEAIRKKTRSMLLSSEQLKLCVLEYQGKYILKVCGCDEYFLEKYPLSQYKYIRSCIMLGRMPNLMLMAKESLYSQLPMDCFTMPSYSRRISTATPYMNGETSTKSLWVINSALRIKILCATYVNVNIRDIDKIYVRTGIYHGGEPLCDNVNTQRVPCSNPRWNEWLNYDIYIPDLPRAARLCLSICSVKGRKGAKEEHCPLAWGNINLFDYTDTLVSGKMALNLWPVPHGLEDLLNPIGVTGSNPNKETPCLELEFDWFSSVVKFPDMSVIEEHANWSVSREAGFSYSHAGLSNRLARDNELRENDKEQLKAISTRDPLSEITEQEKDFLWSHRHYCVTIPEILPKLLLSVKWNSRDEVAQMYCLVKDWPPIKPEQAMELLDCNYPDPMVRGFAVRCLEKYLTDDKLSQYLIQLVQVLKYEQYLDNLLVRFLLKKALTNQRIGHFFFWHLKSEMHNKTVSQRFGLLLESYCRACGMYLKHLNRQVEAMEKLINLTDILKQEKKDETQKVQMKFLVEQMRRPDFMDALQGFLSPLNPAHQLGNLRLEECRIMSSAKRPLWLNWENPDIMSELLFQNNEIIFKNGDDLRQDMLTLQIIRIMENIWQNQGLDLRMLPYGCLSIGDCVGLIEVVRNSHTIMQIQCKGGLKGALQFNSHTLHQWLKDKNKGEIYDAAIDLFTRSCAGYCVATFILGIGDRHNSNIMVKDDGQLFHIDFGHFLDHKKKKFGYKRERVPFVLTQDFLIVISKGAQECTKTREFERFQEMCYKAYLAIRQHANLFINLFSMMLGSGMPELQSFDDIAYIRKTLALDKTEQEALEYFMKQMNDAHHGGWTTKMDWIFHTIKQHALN
T2 sequence (P27986 whole entry partner): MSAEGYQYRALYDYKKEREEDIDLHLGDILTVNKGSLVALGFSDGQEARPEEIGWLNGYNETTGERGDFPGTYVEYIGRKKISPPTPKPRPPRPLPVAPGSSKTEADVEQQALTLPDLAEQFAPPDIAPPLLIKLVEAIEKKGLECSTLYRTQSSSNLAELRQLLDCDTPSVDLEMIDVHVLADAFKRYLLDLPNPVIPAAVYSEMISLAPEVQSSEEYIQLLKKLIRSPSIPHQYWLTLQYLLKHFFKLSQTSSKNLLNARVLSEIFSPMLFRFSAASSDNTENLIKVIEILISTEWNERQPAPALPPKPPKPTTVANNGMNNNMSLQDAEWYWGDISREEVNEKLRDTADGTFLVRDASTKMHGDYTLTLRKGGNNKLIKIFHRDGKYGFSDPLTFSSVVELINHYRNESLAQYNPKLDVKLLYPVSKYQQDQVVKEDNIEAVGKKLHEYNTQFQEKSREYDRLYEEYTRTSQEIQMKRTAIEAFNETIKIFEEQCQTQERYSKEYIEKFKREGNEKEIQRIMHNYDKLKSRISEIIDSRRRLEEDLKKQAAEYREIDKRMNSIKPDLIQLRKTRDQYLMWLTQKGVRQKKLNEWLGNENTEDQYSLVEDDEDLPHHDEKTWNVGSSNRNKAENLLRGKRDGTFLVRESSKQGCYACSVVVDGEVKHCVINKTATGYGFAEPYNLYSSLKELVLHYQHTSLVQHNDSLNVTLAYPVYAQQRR

As a reminder, the IC50 is the concentration that inhibits the measured activity by half. Turning to `CN(C)C(=O)c1ccc(Oc2nc(-c3cnc4[nH]ccc4c3)nc(N3CCOCC3)n2)c(F)c1` [Compound 10158, 4-(4-morpholino-6-(1H-pyrrolo[2,3-b]pyridin-5-yl)-1,3,5-triazin-2-yloxy)-3-fluoro-N,N-dimethylbenzamide], the IC50 in experiment [1] and in experiment [2] was less than 1 µM in each case.

As for `CN(C)C(=O)c1ccc(Oc2nc(-c3ccc4[nH]ncc4c3)nc(N3CC4CCC(C3)O4)n2)c(F)c1` [Compound 10140, 4-(4-(8-oxa-3-aza-bicyclo[3.2.1]octan-3-yl)-6-(1H-indazol-5-yl)-1,3,5-triazin-2-yloxy)-3-fluoro-N,N-dimethylbenzamide], in experiment [1], the inhibition at 1 µM is greater than 50% and the IC50 is less than 1 µM. For the same compound, the IC50 in experiment [2] is greater than 10 µM.

On to `C[C@@H]1CN(c2nc(Oc3ccc(C(=O)N(C)C)cc3F)nc(-c3ccc4[nH]ncc4c3)n2)[C@@H](C)CO1` [Compound 10064, 4-((4-((2R,3S)-2,5-dimethylmorpholino)-6-(1H-indazol-5-yl)-1,3,5-triazin-2-yl)oxy)3-fluoro-N,N-dimethylbenzamide], for which the IC50 in experiment [1] was less than 1 µM. Besides, in experiment [2], the inhibition at 1 µM was less than 50%.

`C[C@H]1COCCN1c1nc(Oc2ccc(C(=O)N(C)C)cc2)nc(-c2cnc(NC(=O)NC3CC3)s2)n1` [Compound 10093]: the IC50 in experiment [1] and in experiment [2] was less than 1 µM throughout. Besides, the inhibition at 1 µM in experiment [2] is greater than 50%.

As for `CN(C)C(=O)c1ccc(Oc2nc(-c3cnc(N)s3)nc(N3CC4CCC(C3)O4)n2)cc1` [Compound 10075, 4-((4-(2-Aminothiazol-5-yl)-6-(8-oxa-3-azabicyclo[3.2.1]octan-3-yl)-1,3,5-triazin-2-yl)oxy)-N,N-dimethylbenzamide], the inhibition at 1 µM in experiment [1] was greater than 50%; in experiment [2], less than 50%. Moreover, the IC50 was less than 1 µM in experiment [1] and greater than 1 µM in experiment [2].

On to `C[C@@H]1CN(c2nc(Oc3ccc(C(=O)N(C)C)cc3)nc(-c3cnc(N)s3)n2)[C@@H](C)CO1` [Compound 10076, 4-((4-(2-Aminothiazol-5-yl)-6-((2R,5S)-2,5-dimethylmorpholino)-1,3,5-triazin-2-yl)oxy)-N,N-dimethylbenzamide], for which, in experiment [1], the inhibition at 1 µM is greater than 50% and the IC50 was less than 1 µM. Besides, in experiment [2], the inhibition at 1 µM is less than 50% and the IC50 was greater than 1 µM.

As to `C[C@H]1CN(c2nc(Oc3ccc(C(=O)N(C)C)cc3F)nc(-c3ccc(N)nc3)n2)[C@@H](C)CO1` [Compound 10097, 4-((4-(6-Aminopyridin-3-yl)-6-((2S,5S)-2,5-dimethylmorpholino)-1,3,5-triazin-2-yl)oxy)-3-fluoro-N,N-dimethylbenzamide], in experiment [1], the concentration for half-maximal inhibition (IC50) was less than 1 µM. Also, in experiment [2], the inhibition at 1 µM was greater than 50% and the IC50 was less than 1 µM.

On to `C[C@H]1COCCN1c1nc(O[C@H]2CC[C@H](C(=O)N(C)C)CC2)nc(-c2cnc(N)s2)n1` [Compound 10139, (1S,4r)-4-(4-(2-aminothiazol-5-yl)-6-((S)-3-methylmorpholino)-1,3,5-triazin-2-yloxy)-N,N-dimethylcyclohexanecarboxamide], for which the inhibition at 1 µM in experiment [1] was greater than 50%. For the same compound, the IC50 in experiment [1] and in experiment [2] was less than 1 µM throughout.

Take `C[C@H]1COCCN1c1nc(O[C@H]2CC[C@H](C(=O)N(C)C)CC2)nc(-c2ccc3[nH]ncc3c2)n1` [Compound 10202, (1S,4r)-4-((4-(1H-indazol-5-yl)-6-((S)-3-methylmorpholino)-1,3,5-triazin-2-yl)oxy)-N,N-dimethylcyclohexane-1-carboxamide]: the IC50 in experiment [1] was greater than 1 µM; in experiment [2] it was greater than 10 µM.

`C[C@H]1COCCN1c1nc(OC2CCC(C(=O)N(C)C)CC2)nc(-c2cccc(CO)c2)n1` (stereo partly drawn) [Compound 10147, (1R,4s)-4-(4-(3-(hydroxymethyl)phenyl)-6-((S)-3-methylmorpholino)-1,3,5-triazin-2-yloxy)-N,N-dimethylcyclohexanecarboxamide]: the IC50 in experiment [1] was greater than 1 µM. Also, in experiment [2], the inhibition at 1 µM was greater than 50%.

Turning to `C[C@@H]1COCCN1c1nc(Oc2ccc(C(=O)N(C)C)cc2F)nc(-c2cnc(N)s2)n1` [Compound 10156, 4-(4-(2-aminothiazol-5-yl)-6-((R)-3-methylmorpholino)-1,3,5-triazin-2-yloxy)-3-fluoro-N,N-dimethylbenzamide], the IC50 in experiment [1] is less than 1 µM. In experiment [2], the inhibition at 1 µM is less than 50% and it took 3 µM to reach half-maximal inhibition (IC50).

`CN(C)C(=O)c1ccc(Oc2nc(-c3cnc(N)s3)nc(N3CCOCC3)n2)cc1` [Compound 10017, 4-(4-(2-aminothiazol-5-yl)-6-morpholino-1,3,5-triazin-2-yloxy)-N,N-dimethylbenzamide]: the IC50 in experiment [1] and in experiment [2] was less than 1 µM throughout.

For the compound `C[C@H]1COCCN1c1nc(O[C@H]2CC[C@H](C(=O)N(C)C)CC2)nc(-c2ccc(CO)cc2)n1` [Compound 10203, (1S,4r)-4-((4-(4-(hydroxymethyl)phenyl)-6-((S)-3-methylmorpholino)-1,3,5-triazin-2-yl)oxy)-N,N-dimethylcyclohexane-1-carboxamide], in experiment [1], the IC50 is greater than 3 µM. For the same compound, in experiment [2], the inhibition at 1 µM is less than 50%.
